The record followed here is US10865216B2, “Tricyclic Gyrase inhibitors” (MERCK SHARP & DOHME CORP., priority 2012, dated 2020).

Each structure is given as a SMILES string. Converted amounts (≈) assume the structure as drawn. Where two headings read alike, the source gives them in different places.

One experiment deals with S. aureus ATCC 13709. The experiment can be described thus: MIC, S. aureus ATCC 13709. It counts as cell-based. Conditions: for MIC: Staphylococcus aureus; for MIC Sa: S. aureus.
The test system of the next experiment is E. coli ATCC 25922. Put plainly: MIC, E. coli ATCC 25922. The settings on record: for MIC: Escherichia coli; for MIC Ec: E. coli. Format: cell-based.
Where [1] appears, read: ATCC13709, Table 16, new R4 substituents, read-out: SA MIC.
Where [2] appears, read: ATCC25922, Table 16, new R4 substituents, EC8 not defined, read-out: EC8 MIC.
Setting [3] is: Alamar Blue read after overnight incubation at 35° C.
The mark [4] stands for this setting: ATCC13709, S. aureus, Alamar Blue read after overnight incubation at 35° C., read-out: MIC Sa.
[5] abbreviates: ATCC25922, E. coli, Alamar Blue read after overnight incubation at 35° C., read-out: MIC Ec.

For the compound `CNc1cc(F)cc2c1[nH]c1nc(Oc3cnc(C)nc3)nc(N3CCC(N)(CN)C3)c12` (stereo not drawn), the MIC in the experiment with S. aureus ATCC 13709 (setting [1]) is at most 0.5 µg/mL; with E. coli ATCC 25922 (setting [2]), 16 µg/mL (≈ 36.6 µM).
As for `CNc1cc(F)cc2c1[nH]c1nc(Oc3cnc(C)nc3)nc(N3CCC(N)(C(F)(F)F)C3)c12` (stereo not drawn), the MIC in the experiment on S. aureus ATCC 13709 (setting [1]) is at most 0.5 µg/mL; with E. coli ATCC 25922 (setting [2]) it was 1 µg/mL (≈ 2.1 µM).
As to `CCC1(CN)CCN(c2nc(Oc3cnc(C)nc3)nc3[nH]c4c(NC)cc(F)cc4c23)C1` (stereo not drawn), the MIC in the experiment on S. aureus ATCC 13709 (setting [1]) and with E. coli ATCC 25922 (setting [2]) was at most 0.5 µg/mL each time.
With `CNc1cc(F)cc2c1[nH]c1nc(Oc3cnc(C)nc3)nc(N3CCC(C)(CN)C3)c12` (stereo not drawn), the MIC in the experiment with S. aureus ATCC 13709 (setting [1]) and in the experiment on E. coli ATCC 25922 (setting [2]) was at most 0.5 µg/mL throughout.
As for `CNc1cc(F)cc2c1[nH]c1nc(Oc3cnc(C)nc3)nc(N3CC[C@@H](CN)C3)c12`, the MIC in the experiment on S. aureus ATCC 13709 (setting [1]) and with E. coli ATCC 25922 (setting [2]) was at most 0.5 µg/mL each time.
Take `CNc1cc(F)cc2c1[nH]c1nc(Oc3cnc(C)nc3)nc(N3CC[C@H](CN)C3)c12`: the MIC with S. aureus ATCC 13709 (setting [1]) and in the experiment with E. coli ATCC 25922 (setting [2]) was at most 0.5 µg/mL in each case.
In the case of `CNc1cc(F)cc2c1[nH]c1nc(Oc3cnc(C)nc3)nc(NCCN)c12`, the figures for the MIC in the experiment with S. aureus ATCC 13709 (setting [1]) and in the experiment on E. coli ATCC 25922 (setting [2]) were 4 µg/mL (≈ 10.5 µM) and 16 µg/mL (≈ 41.8 µM), respectively.
Regarding `CNc1cc(F)cc2c1[nH]c1nc(Oc3cnc(C)nc3)nc(N3CCC[C@H]3CN)c12`, the MIC amounted to 1 µg/mL (≈ 2.37 µM) in the experiment on S. aureus ATCC 13709 (setting [1]) and 2 µg/mL (≈ 4.73 µM) with E. coli ATCC 25922 (setting [2]).
The corresponding values for `CNc1cc(F)cc2c1[nH]c1nc(Oc3cnc(C)nc3)nc(C3=CCNC3)c12` are at most 0.5 µg/mL and 8 µg/mL (≈ 20.4 µM).
For `CNc1cc(F)cc2c1[nH]c1nc(Oc3cnc(C)nc3)nc(N3CC(N)C(C(=O)O)C3)c12` (stereo not drawn), in that order: over 16 µg/mL and over 16 µg/mL.
Turning to `NC1CN(c2nc(Sc3cnc4ccc[n+]([O-])c4c3)nc3[nH]c4c(NC5CC5)cc(F)cc4c23)CC12CC2` (stereo not drawn) [Compound 1.02], the “MIC Sa” value in the experiment on S. aureus ATCC 13709 (setting [3]) is 32 µg/mL (≈ 60.5 µM). The “MIC Ec” value in the experiment on E. coli ATCC 25922 (setting [3]) was over 64 µg/mL.
With `NC1C2CN(c3nc(Sc4cnc5ccc[n+]([O-])c5c4)nc4[nH]c5c(Cl)cccc5c34)CC12` (stereo not drawn) [Compound 1.03], the “MIC Sa” value with S. aureus ATCC 13709 (setting [3]) is 32 µg/mL (≈ 67.2 µM). In addition, in the experiment with E. coli ATCC 25922 (setting [3]), the “MIC Ec” value is over 64 µg/mL.
For `N[C@@H]1CCN(c2nc(Sc3cnc4ccc[n+]([O-])c4c3)nc3[nH]c4c(Cl)cccc4c23)C1` [Compound 1.04], in the experiment on S. aureus ATCC 13709 (setting [3]), the “MIC Sa” value worked out at 32 µg/mL (≈ 69 µM). Further, in the experiment with E. coli ATCC 25922 (setting [3]), the “MIC Ec” value amounted to 64 µg/mL (≈ 138 µM).
For the compound `NC1CN(c2nc(Sc3cnc4nccnc4c3)nc3[nH]c4ccccc4c23)C1` [Compound 1.05], the “MIC Sa” value against S. aureus ATCC 13709 (setting [3]) is over 64 µg/mL. For the same compound, the “MIC Ec” value in the experiment on E. coli ATCC 25922 (setting [3]) is over 64 µg/mL.
Consider `NC1CCN(c2nc(Sc3cnc4nccnc4c3)nc3[nH]c4ccccc4c23)C1` (stereo not drawn) [Compound 1.06], for which the “MIC Sa” value in the experiment with S. aureus ATCC 13709 (setting [3]) came out at 32 µg/mL (≈ 77.2 µM). Also, the “MIC Ec” value in the experiment on E. coli ATCC 25922 (setting [3]) was over 64 µg/mL.
Take `Cc1cccc2c1[nH]c1nc(Sc3cnc4nccnc4c3)nc(N3CC4C(N)C4C3)c12` (stereo not drawn) [Compound 1.07]: in the experiment on S. aureus ATCC 13709 (setting [3]), the “MIC Sa” value worked out at 4 µg/mL (≈ 9.08 µM). Also, the “MIC Ec” value with E. coli ATCC 25922 (setting [3]) was over 32 µg/mL.
For `Nc1cccc2c1[nH]c1nc(Sc3cnc4ccc[n+]([O-])c4c3)nc(N3CC4C(N)C4C3)c12` (stereo not drawn) [Compound 1.08], the “MIC Sa” value against S. aureus ATCC 13709 (setting [3]) was 64 µg/mL (≈ 140 µM). For the same compound, the “MIC Ec” value against E. coli ATCC 25922 (setting [3]) is over 64 µg/mL.
As to `Nc1cccc2c1[nH]c1nc(Sc3cnc4cccnc4c3)nc(N3CC4C(N)C4C3)c12` (stereo not drawn) [Compound 1.09], in the experiment on S. aureus ATCC 13709 (setting [3]), the “MIC Sa” value amounted to 64 µg/mL (≈ 145 µM). The “MIC Ec” value against E. coli ATCC 25922 (setting [3]) is over 64 µg/mL.
Turning to `CCNc1cccc2c1[nH]c1nc(Sc3cnc4ccc[n+]([O-])c4c3)nc(N3CC4C(N)C4C3)c12` (stereo not drawn) [Compound 1.10], the MIC with S. aureus ATCC 13709 (setting [4]) is at most 0.5 µg/mL; in the experiment on E. coli ATCC 25922 (setting [5]) it was 4 µg/mL (≈ 8.25 µM).
Consider `CCNc1cccc2c1[nH]c1nc(Sc3cnc4cccnc4c3)nc(N3CC4C(N)C4C3)c12` (stereo not drawn) [Compound 1.11], for which the minimal inhibitory concentration (MIC) is at most 0.5 µg/mL in the experiment on S. aureus ATCC 13709 (setting [4]) and 8 µg/mL (≈ 17.1 µM) in the experiment on E. coli ATCC 25922 (setting [5]).
For the compound `CNc1cccc2c1[nH]c1nc(Sc3cnc4cccnc4c3)nc(N3CC4C(N)C4C3)c12` (stereo not drawn) [Compound 1.12], the MIC is at most 0.5 µg/mL in the experiment on S. aureus ATCC 13709 (setting [4]) and 1 µg/mL (≈ 2.2 µM) in the experiment on E. coli ATCC 25922 (setting [5]).
As to `CNc1cccc2c1[nH]c1nc(Sc3cnc4ccc[n+]([O-])c4c3)nc(N3CC4C(N)C4C3)c12` (stereo not drawn) [Compound 1.13], the “MIC Sa” value with S. aureus ATCC 13709 (setting [3]) is at most 0.5 µg/mL. Moreover, the MIC in the experiment on E. coli ATCC 25922 (setting [5]) is at most 0.5 µg/mL.
Consider `CNc1cccc2c1[nH]c1nc(Sc3cnc4ccc[n+]([O-])c4c3)nc(N3CC[C@H](N)C3)c12` [Compound 1.14], for which the MIC in the experiment on S. aureus ATCC 13709 (setting [4]) is at most 0.5 µg/mL; in the experiment with E. coli ATCC 25922 (setting [5]), 1 µg/mL (≈ 2.18 µM).
For the compound `CNc1cccc2c1[nH]c1nc(Sc3cnc4nccnc4c3)nc(N3CC[C@H](N)C3)c12` [Compound 1.15], the MIC with S. aureus ATCC 13709 (setting [4]) was determined as 1 µg/mL (≈ 2.25 µM); with E. coli ATCC 25922 (setting [5]), 2 µg/mL (≈ 4.51 µM).
As for `CNc1cccc2c1[nH]c1nc(Sc3cnc4nccnc4c3)nc(N3CC4C(N)C4C3)c12` (stereo not drawn) [Compound 1.16], the MIC in the experiment with S. aureus ATCC 13709 (setting [4]) is at most 0.5 µg/mL; in the experiment with E. coli ATCC 25922 (setting [5]), 1 µg/mL (≈ 2.2 µM).
For `CNc1cccc2c1[nH]c1nc(Sc3cnc4ccc[n+]([O-])c4c3)nc(N3CC(O)C3)c12` [Compound 1.17], the MIC in the experiment on S. aureus ATCC 13709 (setting [4]) was at most 0.5 µg/mL; with E. coli ATCC 25922 (setting [5]), over 64 µg/mL.
Take `CNc1cccc2c1[nH]c1nc(Sc3cnc4ccc[n+]([O-])c4c3)nc(N3C[C@@H]4[C@@H](CN)[C@@H]4C3)c12` [Compound 1.18]: the MIC is at most 0.5 µg/mL in the experiment with S. aureus ATCC 13709 (setting [4]) and 2 µg/mL (≈ 4.13 µM) with E. coli ATCC 25922 (setting [5]).
